Reference: patent US20210002182A1, “NOVEL PHOSPHATIC FERTILIZERS BASED ON ALKANOLAMINE SALTS OF PHOSPHORIC ACID” (Yara UK Limited, priority 2017, published 2021)

What was measured:
radish test crop = test: Glasshouse crop safety trial, foliar spraying; assay type: in vivo; settings: foliar spraying at 5 leaf stage, 3.4 kg P2O5 per ha in 200 litres/ha water, assessed seven days after spraying
Description: Glasshouse trials were carried out in order to assess crop safety of the composition described above. The trials were carried out using a radish test crop grown in pots in a sand medium and fed via a nutrient solution. A randomised block design using 4 replicates was employed. The product was applied by foliar spraying at the 5 leaf growth stage using a rate equivalent to 10 kg/ha in 200 litres/ha water (equating to an input of 3.4 kg P2O5 per ha). […] The crop was assessed for symptoms of phytotoxicity seven days after spraying.

[1] = 75 weight % phosphoric acid; cited from earlier work

Question: What does the source list for O=P(O)(O)O [phosphoric acid]?
Answer: Symptoms of phytotoxicity (crop damage) (radish test crop): signs of crop damage (leaf burn); Freezing point [1]: −20 °C
